Laboratory results reported in patent US12553055B2, “Auxin-inducible degron system kit and use thereof” (Inter-University Research Institute Corporation Research …, priority 2019, dated 2026).

Assays:
[1] = molecular target: T1, OsTIR1(WT)/mAID-EGFP-NLS expressing cell (Oryza sativa subsp. japonica, UniProt Q7XVM8); assay: FACS analysis of mAID-EGFP-NLS reporter degradation in OsTIR1(WT) expressing HCT116 cell (conventional system); format: cell-based, human
T1 construct: expressed in transfected cells; host or cells: HCT116 (human colon adenocarcinoma-derived cell)
Description: (§1) An HCT116 cell (human colon adenocarcinoma-derived cell) having DNA in which an OsTIR1(WT) or OsTIR1(F74G) and an mAID-EGFP (green fluorescent protein)-NLS (nuclear localization signal) were encoded through a P2A sequence inserted onto a chromosome by a transposon (hereinafter, referred to as “OsTIR1(WT)/mAID-EGFP-NLS expressing cell” or “OsTIR1(F74G)/mAID-EGFP-NLS expressing cell”) was prepared (refer to FIG. 1).
(§2) The auxin analog (concentration in culture medium: 0, 200 μM) was added to the OsTIR1(F74G)/mAID-EGFP-NLS expressing cell and cultured for 24 hours. In addition, as a control, a cell containing an auxin added to the OsTIR1(WT)/mAID-EGFP-NLS expressing cell was also prepared.
(§3) After 24 hours from the addition of the auxin analog, the cells were collected, and FACS analysis was performed.
(§4) Furthermore, the same experiment was performed by adding 100 μM of an auxin to the OsTIR1(WT)/mAID-EGFP-NLS expressing cell, adding 1 μM of 5-Ph-IAA to the OsTIR1(F74G)/mAID-EGFP-NLS expressing cell, collecting the cells after four hours, and performing FACS analysis.
(§5) In order to compare OsTIR1(WT) and OsTIR1(F74G) in more detail, the degradation of the mAID-EGFP-NLS reporter was induced using IAA (auxin) and 5-Ph-IAA in different doses, respectively (refer to FIG. 10(A)). […] DC 50 values (concentrations for 50% degradation) were 300±30 nM and 0.45±0.01 nM in OsTIR1(WT) and OsTIR1(F74G), respectively, and it was confirmed that the system in which 5-Ph-IAA was used functioned at an approximately 670-times lower concentration compared with conventional auxin-inducible degron systems.
In order to investigate dynamics over time attributed to the removal of a target protein, samples after a lapse of time were taken, and the expression levels of the reporter were observed (refer to FIG. 10(B)).

[2] = molecular target: T2, RAD21-mAID-Clover (RAD21-mAC) cell expressing OsTIR1(WT) (Oryza sativa subsp. japonica, UniProt Q7XVM8); assay: RAD21-mAC degradation in HCT116 cell expressing OsTIR1(WT); format: cell-based, human; details: after the addition of a ligand
T2 construct: expressed in transfected cells; host or cells: RAD21-mAC cell expressing OsTIR1(WT) (HCT116 implied)
T2 sequence (Q7XVM8 1-575): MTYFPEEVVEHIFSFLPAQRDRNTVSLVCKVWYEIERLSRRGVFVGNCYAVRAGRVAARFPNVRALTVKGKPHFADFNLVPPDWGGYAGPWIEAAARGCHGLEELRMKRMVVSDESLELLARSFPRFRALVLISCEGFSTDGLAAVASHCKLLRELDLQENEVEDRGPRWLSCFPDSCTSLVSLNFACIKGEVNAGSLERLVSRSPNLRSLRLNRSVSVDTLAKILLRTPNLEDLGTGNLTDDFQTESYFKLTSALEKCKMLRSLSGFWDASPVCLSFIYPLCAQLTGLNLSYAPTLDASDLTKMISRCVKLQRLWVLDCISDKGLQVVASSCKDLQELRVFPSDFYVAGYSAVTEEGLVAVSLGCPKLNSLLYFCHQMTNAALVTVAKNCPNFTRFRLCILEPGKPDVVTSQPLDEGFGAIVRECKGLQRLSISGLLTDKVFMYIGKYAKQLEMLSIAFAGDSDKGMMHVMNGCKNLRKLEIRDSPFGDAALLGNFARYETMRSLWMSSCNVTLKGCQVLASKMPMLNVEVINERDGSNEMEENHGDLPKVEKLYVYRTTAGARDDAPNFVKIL
Description: (§6) A human HCT116 cell constantly expressing OsTIR1(F74G) was used as a material, an RAD21-mAID-Clover (RAD21-mAC) cell was generated by genome editing, and an effect of the addition of 5-Ph-IAA was confirmed. As shown in FIGS. 13(A) and (B), the expression level of RAD21-mAC was […] in a cell expressing OsTIR1(F74G) than in a cell expressing OsTIR1(WT) at 0 minutes before addition, and basal degradation was shown in conventional AID systems.

[3] = test system: yeast strains with mAID tag on MCM10, SLD3 or CDC45; assay: Growth of mAID-tagged yeast strains expressing OsTIR1(WT, F74G or F74A) on plates; format: cell-based
Text: In order to confirm that the AID2 system functions even in yeasts, OsTIR1(WT, F74G or F74A) was introduced into a URA3 gene locus under the control of a GAL1-10 promoter (refer to FIG. 12(A)). After that, an mAID tag was attached to a gene that encodes MCM10, SLD3 or CDC45, which is an essential replication initiator.

[4] = molecular target: T3, SMC2, CTCF and POLR2A to which mAID is added (Oryza sativa subsp. japonica, UniProt Q7XVM8, F74G); assay: Degradation of mAID fused SMC2, CTCF and POLR2A in HCT116 constitutively expressing OsTIR1(F74G); format: cell-based, human; details: 1 μM
T3 construct: expressed in transfected cells; host or cells: HCT116 constitutively expressing OsTIR1(F74G); endogenous genes tagged
Text: Regarding aSMC2 condensin complex, a CTCF insulator protein or the maximum subunit of RNA polymerase 2 (POLR2A) in which it was difficult to produce an AID cell line using an HCT116 cell constantly expressing OsTIR1(WT), whether or not a cell line can be generated with a cell constitutively expressing OsTIR1(F74G) was examined.

[5] = molecular target: T4, OsTIR1(F74A)/mAID-EGFP-NLS expressing cell (Oryza sativa subsp. japonica, UniProt Q7XVM8, F74A); assay: FACS analysis of mAID-EGFP-NLS reporter degradation in OsTIR1(F74A) expressing cell clones; format: cell-based, human
T4 construct: expressed in transfected cells
Description: Furthermore, the same experiment was also performed on three clones using an OsTIR1(F74A)/mAID-EGFP-NLS expressing cell.

mAID-EGFP-CENPH = molecular target: T5, mAID-EGFP-CENPH (Oryza sativa subsp. japonica, UniProt Q7XVM8, F74G); assay: Western blotting of mAID-EGFP-CENPH degradation in HeLa cell (transposon vector + CRISPR-KO); format: cell-based, human; details: anti-CENPH antibody
T5 construct: P2A linker (self-cleaving; remnant); expressed in transfected cells; host or cells: HeLa; transposon vector plus CRISPR-KO vector
Text: (§7) In this degradation system, (1) a transposon vector in which an OsTIR1(F74G) gene and an mAID-target gene are connected by a P2A linker gene and (2) a CRISPR-KO vector for knocking out an endogenous target gene containing gRNA and a Cas9 gene are contained.
(§8) In this degradation system, the OsTIR1(F74G) gene and the mAID-target gene in a genome are integrated by the transposon vector, and an endogenous target gene is knocked out by the CRISPR-KO vector.
(§9) The transposon vector in which an OsTIR1(F74G) gene and an mAID-EGFP-CENPH or mAID-EGFP-POLD1 target gene were connected by a P2A linker gene was constructed, and this vector was introduced into a HeLa cell together with the CRISPR-KO vector targeting an endogenous CENPH or POLD1 gene. 5-Ph-IAA was added to such a cell, and the degradation of the target protein was confirmed by Western blotting (FIG. 6).

[6] = molecular target: T6, OsTIR1(F74G)/DHC1-mAID-Clover expressing cell (Oryza sativa subsp. japonica, UniProt Q7XVM8, F74G); assay: Degradation induction test of DHC1 (microscopy, Western blotting); format: cell-based, human
T6 construct: expressed in transfected cells; host or cells: HCT116; OsTIR1(F74G) gene at the AAVS1 locus; endogenous DHC1 tagged by CRISPR/Cas9 homologous recombination
Description: A plasmid vector having mAID, clover and a neomycin resistance gene and having a homologous sequence with respect to a DHC1 gene so as to sandwich mAID and the neomycin resistance gene was introduced into the OsTIR1(WT)-expressing HCT116 cell or OsTIR1(F74G)-expressing HCT116 cell using a CRISPR/Cas9 system, and homologous recombination with the endogenous DHC1 gene was performed. Next, after selection by G418, the formed colony was dyed using crystal violet. “DHC1” is the abbreviation for dynein heavy chain 1.
A degradation induction test of DHC1 was performed using the HCT116 cell expressing OsTIR1(F74G) on which homologous recombination had been performed in the above-described section 2 (hereinafter, referred to as “OsTIR1(F74G)/DHC1-mAID-Clover expressing cell”).
The compound indicated by the formula (I-2) (also referred to as 5-Ph-IAA) was added to the OsTIR1(F74G)/DHC1-mAID-Clover expressing cell, and the appearance of the cell after 24 hours was observed (FIG. 4(A)).
Furthermore, the degradation of DHC1 was confirmed by Western blotting (FIG. 4(B)).
A CRISPR plasmid for adding a degron tag and two donors each having a neomycin-resistant marker or a hygromycin-resistant marker were transfected into a parent cell line constitutively expressing OsTIR1(WT or F74G) (refer to FIG. 14). In an OsTIR1(F74G) expressing cell, a colony was formed in the presence of G418 and hygromycin, and tags were added to DHC1 genes at both alleles (refer to FIG. 15(A)). In a cell expressing OsTIR1(WT), no colony was formed. […] This coincides with the fact that DHC1 is essential for the formation of a spindle that is formed during mitosis.

HCT116 cell = assay: Influence of 5-Ph-IAA treatment on HCT116 cell (cell cycle, colony formation); format: cell-based, human; details: 1 μM
Description: As shown in FIG. 9(A) in which the influence of the treatment with 1 μM of 5-Ph-IAA on the HCT116 cell was investigated, no influence was shown on the cell cycle. As shown in FIG. 9(B), no change in the colony formation efficiency was shown. It was confirmed that 5-Ph-IAA is an effective ligand and has no toxicity at 1 μM.

mAID-EGFP-POLD1 = molecular target: T7, mAID-EGFP-POLD1 (Oryza sativa subsp. japonica, UniProt Q7XVM8, F74G); assay: Western blotting of mAID-EGFP-POLD1 degradation in HeLa cell (transposon vector + CRISPR-KO); format: cell-based, human; details: anti-POLD1 antibody, clones #1 to #3
T7 construct: P2A linker (self-cleaving; remnant); expressed in transfected cells; host or cells: HeLa; transposon vector plus CRISPR-KO vector
Text: as §7, §8, §9

[7] = molecular target: T8, OsTIR1(F74G)/mAID-EGFP-NLS expressing cell (Oryza sativa subsp. japonica, UniProt Q7XVM8, F74G); assay: FACS analysis of mAID-EGFP-NLS reporter degradation in OsTIR1(F74G) expressing HCT116 cell; format: cell-based, human
T8 construct: expressed in transfected cells; host or cells: HCT116 (human colon adenocarcinoma-derived cell)
Description: as §1, §2, §3, §4, §5
In order to investigate dynamics over time attributed to the removal of a target protein, samples after a lapse of time were taken, and the expression levels of the reporter were observed (refer to FIG. 10(B)). […]

[8] = molecular target: T9, RAD21-mAID-Clover (RAD21-mAC) cell expressing OsTIR1(F74G) (Oryza sativa subsp. japonica, UniProt Q7XVM8, F74G); assay: RAD21-mAC degradation in HCT116 cell expressing OsTIR1(F74G); format: cell-based, human
T9 construct: expressed in transfected cells; host or cells: human HCT116 constantly expressing OsTIR1(F74G); RAD21 tagged by genome editing
Description: as §6

O=C(O)Cc1c[nH]c2ccccc12 [IAA]
degradation of mAID-EGFP-NLS reporter ([1]; 100 μM, four hours): the reporter was degraded
half-life of reporter degradation ([1]; conventional system, OsTIR1(WT)): 147.1 ± 12.5 min
DC50 ([1]; mAID-EGFP-NLS reporter, OsTIR1(WT), HCT116, read-out: DC 50 values (concentrations for 50% degradation)): 0.3 ± 0.03 µM
T1/2 of RAD21-mAC [2]: 26.5 min
growth of mAID-introduced yeast strains ([3]; 500 μM, OsTIR1(WT and F74A)): growth suppression

O=C(O)Cc1c[nH]c2ccc(-c3ccccc3)cc12 [5-Ph-IAA, 5-phenyl-indole 3-acetic acid]
degradation of mAID fused targets (SMC2, CTCF, POLR2A) [4]: rapidly degraded
degradation of mAID-EGFP-NLS reporter in clones [5]: degradation was induced
degradation of mAID-EGFP-CENPH by Western blotting (mAID-EGFP-CENPH): degradation of mAID-EGFP-CENPH was confirmed
cell cycle phenotype after DHC1-mAC degradation ([6]; 1 μM): arrested in mitosis
mitotic spindle formation after DHC1-mAC degradation ([6]; 1 μM): strong defect in mitotic spindle formation
degradation of DHC1-mAC ([6]; 1 μM, clone with tags at both alleles): more efficiently degraded
cell phenotype after DHC1 degradation ([6]; after 24 hours): accumulation of cells in the mitotic period was observed
degradation of DHC1-mAID-Clover fused protein (microscopy) ([6]; after 24 hours): degraded a DHC1-mAID-Clover fused protein
degradation of DHC1 by Western blotting ([6]; clones #1 to #3): degradation of DHC1 and mAID was confirmed
growth of mAID-introduced yeast strains ([3]; plates containing 5 μM, OsTIR1(F74G or F74A)): strong growth inhibition
colony formation efficiency (HCT116 cell): no change
influence on the cell cycle (HCT116 cell): no influence
toxicity (HCT116 cell): no toxicity
degradation of mAID-EGFP-POLD1 by Western blotting (mAID-EGFP-POLD1): degradation of mAID-EGFP-POLD1 was confirmed
effect of inducing the degradation of the mAID-EGFP-NLS reporter ([7]; 1 nM and 10 nM, compared with the other auxin analogs): stronger effect
degradation of mAID-EGFP-NLS reporter ([7]; 1 μM, four hours): efficiently degraded
half-life of reporter degradation ([7]; AID2 system, OsTIR1(F74G)): 62.3 ± 2.0 min
times lower concentration compared with conventional auxin-inducible degron systems ([7]; DC50 OsTIR1(WT)/IAA versus OsTIR1(F74G)/5-Ph-IAA): approximately 670 times
degradation of mAID-EGFP-NLS reporter in clones ([7]; OsTIR1(F74G) clones compared with OsTIR1(F74A) clone): sharper degradation
recovery of reporter expression after exchange to culture medium containing no 5-Ph-IAA ([7]; OsTIR1(F74G), after degradation induction): fully recovered after three hours
DC50 ([7]; read-out: DC 50 values (concentrations for 50% degradation), mAID-EGFP-NLS reporter, OsTIR1(F74G), HCT116): 0.00045 ± 1e-05 µM
cell cycle of RAD21-mAC degraded cells [8]: arrested in the G2/M phase
sister chromatid cohesion of RAD21-mAC degraded cell [8]: profound defect
T1/2 of RAD21-mAC ([8]; after the addition of a ligand): 11.7 min
